Assay results reported in patent US20090220425A1, “Method to Quantitatively Measure Effect of Psychotropic Drugs on Sensory Discrimination” (DREXEL UNIVERSITY, priority 2006, published 2009).

How the values were obtained:
[1] = system: ensemble of neurons in the deep layers of the forelimb rat primary somatosensory cortex; assay: PSTH-based classification of stimulus location from single-trial responses of neuron ensembles (information representation); type: in vivo; settings: for classification performance (bits of information) after drug compared to saline: one ensemble of neurons, touch-stimuli to contralateral body, every bin size tested, FIGS. 1A and 1B
[2] = system: neurons of the infragranular layer of the primary somatosensory cortex of the rat; assay: Classical neurophysiological measures of somatosensory responses (sensory mapping, magnitude and latency of neural responses to touch stimuli) before and after drug; type: in vivo

Compound | classification performance (bits of information) after drug compared to saline [1] | effectiveness of the low dose ([2]; MCPP 0.075 (low) mg/kg, intraperitoneal (IP), dissolved in saline) | amount of information represented by the ensemble after administration ([1]; binsize from 40 ms (spike-count) to 1 ms (spike-timing), single-trial discrimination of stimulus location) | effectiveness of the medium dose ([2]; FLU 10 (medium) mg/kg, IP injection, dissolved in saline) | number of spikes per stimulus after drug ([2]; fluoxetine 10 mg/kg, two rats, 0.67 spikes per stimulus before drug, significant increase, p<0.001) | latency of the response after drug ([2]; fluoxetine 10 mg/kg, two rats, 20 msec before drug, decrease did not reach significance (p=0.11))
Clc1cccc(N2CCNCC2)c1 [MCPP, meta-chlorophenylpiperazine] | increase for every bin size tested | effective |  |  |  | 
CNCCC(Oc1ccc(C(F)(F)F)cc1)c1ccccc1 (stereo not shown) [fluoxetine] | increased for every bin size tested |  | greater | effective | 1.05 spikes per stimulus | 17.5 ms
